From patent publication US12215140B2, “Method of stabilizing protein contained in specimen and solution for stabilizing protein contained in specimen” (EIKEN KAGAKU KABUSHIKI KAISHA, priority 2018, dated 2025)

Tested on: hemoglobin-haptoglobin complex
Assay: Stability of hemoglobin (as hemoglobin-haptoglobin complex) in samples preserved at 37° C. in preservation solution containing 1 unit/L haptoglobin, Hb measured by latex agglutination method (Examples 1 to 7)
Parameters: species or system human
Summary of the method: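 Hemoglobin (~300 µg/L) in 0.5% fecal suspension, or without feces, held at 37 °C for 0–21 days in 40 mmol/L HEPES pH 6.8, 0.1% BSA, 0.1% NaN3, 1 unit/L haptoglobin, with 0–100 mmol/L phenylboronic acid ± sugars. Hb quantified by latex agglutination with anti-human Hb rabbit polyclonal; recovery (%) relative to day 0.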

[1] = Feces 3, phenylboronic acid 0.5 mmol/L, 37° C., 7 days
[2] = Feces 3, phenylboronic acid 0.5 mmol/L, 37° C., 14 days
[3] = Feces 3, phenylboronic acid 0.5 mmol/L, 37° C., 21 days
[4] = Feces 3, phenylboronic acid 1 mmol/L, 37° C., 7 days
[5] = Feces 3, phenylboronic acid 1 mmol/L, 37° C., 14 days
[6] = Feces 3, phenylboronic acid 1 mmol/L, 37° C., 21 days
[7] = Feces 3, phenylboronic acid 15 mmol/L, 37° C., 0 days
[8] = Feces 3, phenylboronic acid 15 mmol/L, 37° C., 7 days
[9] = Feces 3, phenylboronic acid 15 mmol/L, 37° C., 14 days
[10] = Feces 3, phenylboronic acid 15 mmol/L, 37° C., 21 days
[11] = Feces 3, phenylboronic acid 50 mmol/L, 37° C., 0 days
[12] = Feces 3, phenylboronic acid 50 mmol/L, 37° C., 7 days
[13] = Feces 3, phenylboronic acid 50 mmol/L, 37° C., 14 days
[14] = Feces 3, phenylboronic acid 50 mmol/L, 37° C., 21 days
[15] = Feces 3, phenylboronic acid 100 mmol/L, 37° C., 0 days
[16] = Feces 3, phenylboronic acid 100 mmol/L, 37° C., 7 days
[17] = Feces 3, phenylboronic acid 100 mmol/L, 37° C., 14 days
[18] = Feces 3, phenylboronic acid 100 mmol/L, 37° C., 21 days
[19] = No feces, phenylboronic acid 0.5 mmol/L, 37° C., 7 days
[20] = No feces, phenylboronic acid 0.5 mmol/L, 37° C., 14 days
[21] = No feces, phenylboronic acid 0.5 mmol/L, 37° C., 21 days
[22] = No feces, phenylboronic acid 1 mmol/L, 37° C., 7 days
[23] = No feces, phenylboronic acid 1 mmol/L, 37° C., 14 days
[24] = No feces, phenylboronic acid 1 mmol/L, 37° C., 21 days
[25] = No feces, phenylboronic acid 15 mmol/L, 37° C., 0 days
[26] = No feces, phenylboronic acid 15 mmol/L, 37° C., 7 days
[27] = No feces, phenylboronic acid 15 mmol/L, 37° C., 14 days
[28] = No feces, phenylboronic acid 15 mmol/L, 37° C., 21 days
[29] = No feces, phenylboronic acid 50 mmol/L, 37° C., 0 days
[30] = No feces, phenylboronic acid 50 mmol/L, 37° C., 7 days
[31] = No feces, phenylboronic acid 50 mmol/L, 37° C., 14 days
[32] = No feces, phenylboronic acid 50 mmol/L, 37° C., 21 days
[33] = No feces, phenylboronic acid 100 mmol/L, 37° C., 0 days
[34] = No feces, phenylboronic acid 100 mmol/L, 37° C., 7 days
[35] = No feces, phenylboronic acid 100 mmol/L, 37° C., 14 days
[36] = No feces, phenylboronic acid 100 mmol/L, 37° C., 21 days

OB(O)c1ccccc1 [phenylboronic acid]
Recovery ratio with respect to Hb concentration after 0 days (Feces 3, phenylboronic acid 0.5 mmol/L, 37° C., 0 days): 100% | Hb concentration [1]: 133 µg/L | Recovery ratio with respect to Hb concentration after 0 days [1]: 47% | Hb concentration [2]: 104 µg/L | Recovery ratio with respect to Hb concentration after 0 days [2]: 37% | Hb concentration [3]: 93 µg/L | Recovery ratio with respect to Hb concentration after 0 days [3]: 33% | Recovery ratio with respect to Hb concentration after 0 days (Feces 3, phenylboronic acid 1 mmol/L, 37° C., 0 days): 100% | Hb concentration [4]: 159 µg/L | Recovery ratio with respect to Hb concentration after 0 days [4]: 57% | Hb concentration [5]: 131 µg/L | Recovery ratio with respect to Hb concentration after 0 days [5]: 47% | Hb concentration [6]: 115 µg/L | Recovery ratio with respect to Hb concentration after 0 days [6]: 41% | Hb concentration (Feces 3, phenylboronic acid 15 mmol/L, no sugar, 0 days at 37° C.): 288 µg/L | Hb concentration (Feces 3, phenylboronic acid 15 mmol/L, no sugar, 7 days at 37° C.): 224 µg/L | Hb concentration (Feces 3, phenylboronic acid 15 mmol/L, no sugar, 14 days at 37° C.): 200 µg/L | Hb concentration (Feces 3, phenylboronic acid 15 mmol/L, no sugar, 21 days at 37° C.): 185 µg/L | Hb concentration [7]: 288 µg/L | Recovery ratio with respect to Hb concentration after 0 days [7]: 100% | Hb concentration [8]: 224 µg/L | Recovery ratio with respect to Hb concentration after 0 days [8]: 78% | Hb concentration [9]: 200 µg/L | Recovery ratio with respect to Hb concentration after 0 days [9]: 69% | Hb concentration [10]: 185 µg/L | Recovery ratio with respect to Hb concentration after 0 days [10]: 64% | Hb concentration [11]: 274 µg/L | Recovery ratio with respect to Hb concentration after 0 days [11]: 100% | Hb concentration [12]: 204 µg/L | Recovery ratio with respect to Hb concentration after 0 days [12]: 74% | Hb concentration [13]: 176 µg/L | Recovery ratio with respect to Hb concentration after 0 days [13]: 64% | Hb concentration [14]: 158 µg/L | Recovery ratio with respect to Hb concentration after 0 days [14]: 58% | Hb concentration [15]: 247 µg/L | Recovery ratio with respect to Hb concentration after 0 days [15]: 100% | Hb concentration [16]: 156 µg/L | Recovery ratio with respect to Hb concentration after 0 days [16]: 63% | Hb concentration [17]: 88 µg/L | Recovery ratio with respect to Hb concentration after 0 days [17]: 36% | Hb concentration [18]: 53 µg/L | Recovery ratio with respect to Hb concentration after 0 days [18]: 21% | Recovery ratio with respect to Hb concentration after 0 days (No feces, phenylboronic acid 0.5 mmol/L, 37° C., 0 days): 100% | Hb concentration [19]: 248 µg/L | Recovery ratio with respect to Hb concentration after 0 days [19]: 96% | Hb concentration [20]: 243 µg/L | Recovery ratio with respect to Hb concentration after 0 days [20]: 95% | Hb concentration [21]: 246 µg/L | Recovery ratio with respect to Hb concentration after 0 days [21]: 96% | Recovery ratio with respect to Hb concentration after 0 days (No feces, phenylboronic acid 1 mmol/L, 37° C., 0 days): 100% | Hb concentration [22]: 244 µg/L | Recovery ratio with respect to Hb concentration after 0 days [22]: 92% | Hb concentration [23]: 241 µg/L | Recovery ratio with respect to Hb concentration after 0 days [23]: 91% | Hb concentration [24]: 244 µg/L | Recovery ratio with respect to Hb concentration after 0 days [24]: 92% | Hb concentration (No feces, phenylboronic acid 15 mmol/L, no sugar, 0 days at 37° C.): 286 µg/L | Hb concentration (No feces, phenylboronic acid 15 mmol/L, no sugar, 7 days at 37° C.): 262 µg/L | Hb concentration (No feces, phenylboronic acid 15 mmol/L, no sugar, 14 days at 37° C.): 253 µg/L | Hb concentration [25]: 286 µg/L | Recovery ratio with respect to Hb concentration after 0 days [25]: 100% | Hb concentration [26]: 262 µg/L | Recovery ratio with respect to Hb concentration after 0 days [26]: 92% | Hb concentration [27]: 253 µg/L | Recovery ratio with respect to Hb concentration after 0 days [27]: 88% | Hb concentration [28]: 264 µg/L | Recovery ratio with respect to Hb concentration after 0 days [28]: 92% | Hb concentration [29]: 260 µg/L | Recovery ratio with respect to Hb concentration after 0 days [29]: 100% | Hb concentration [30]: 242 µg/L | Recovery ratio with respect to Hb concentration after 0 days [30]: 93% | Hb concentration [31]: 228 µg/L | Recovery ratio with respect to Hb concentration after 0 days [31]: 88% | Hb concentration [32]: 235 µg/L | Recovery ratio with respect to Hb concentration after 0 days [32]: 90% | Hb concentration [33]: 239 µg/L | Recovery ratio with respect to Hb concentration after 0 days [33]: 100% | Hb concentration [34]: 198 µg/L | Recovery ratio with respect to Hb concentration after 0 days [34]: 83% | Hb concentration [35]: 183 µg/L | Recovery ratio with respect to Hb concentration after 0 days [35]: 77% | Hb concentration [36]: 178 µg/L | Recovery ratio with respect to Hb concentration after 0 days [36]: 74% | apparent recovery ratio (addition of 50 mmol/L or more phenylboronic acid): decreased | decrease in the apparent recovery ratios (phenylboronic acid 50 mmol/L in preservation solutions to which a sugar (100 mmol/L) was added): not observed | phenylboronic acid concentration at which the recovery ratio of hemoglobin reached the maximum (samples containing feces, 37° C.): 15 mmol/L | improvement of recovery ratio by addition of phenylboronic acid (samples containing no fecal specimens): not observed
